Among the data in a melting point compilation (Tetko et al.; mined from patent text by program, amines drawn as free bases though some values may be those of a salt) are melting point values, retold here.

SMILES strings stand for the structures.

Molecule `O=C(C=Cc1cccc(S(=O)(=O)N2CCN(c3ccccc3F)CC2)c1)NO` gave a melting point of 176 °C.
In the case of `O=C(Nc1c(F)cccc1F)c1ccc(-n2nc(C(F)(F)F)cc2C2CC2)c(F)c1`, the melting point was 168 to 170 °C.
To `O=C1N(c2ccccc2Br)Cc2cnc(Nc3ccccc3)nc2N1c1ccc(CO)cc1` belongs 129 to 132 °C.
`CC(=O)OCCN1CCN(C)c2cc(Nc3ncc(Cl)c(N[C@@H]4CCCC[C@H]4NS(C)(=O)=O)n3)ccc2C1`: the melting point is 110 to 142 °C.
`FC(F)(F)c1cc2ncccc2cc1Cl` yielded a melting point of 137 to 139 °C.
Consider `CCCCS(=O)(=O)Nc1ccc(I)cc1`, for which the melting point lay within 80 to 81 °C.
With `Cc1oncc1-c1cncc(OC2SCC(O)C(O)C2O)c1` (configuration not stated), the melting point was determined as 209 °C.
Under `COC(=O)c1ccc(Cc2cn(C)c3ccc(CCNC(=O)N4CCOCC4)cc23)c(OC)c1` stands 160 to 161 °C.
Regarding `Cc1cccc(-c2[nH]c(C(C)C)nc2-c2cccc(-c3ccc(F)cc3)c2)n1`, the melting point lay within 83 to 85 °C.
Molecule `OCc1ccccc1SCCN1CCN(c2ccccc2)CC1` yielded a melting point of 72 to 74 °C.
Under `CS(=O)c1ccc(-c2coc3ccc(-c4nnc(S)o4)cc23)cc1` (configuration not stated) stands 234 to 235 °C.
Take `c1ccc2c(c1)CC(Nc1ncnc3nc[nH]c13)C2`: the melting point was 300 °C.
`CNC1C(O)CC2C3CCC4CC(OC(C)=O)CCC4(C)C3CCC21C` (configuration not stated) had a melting point of 197 to 199 °C.
Molecule `CCOC(=O)C(Cc1ccccc1)(C(=O)Nc1ccc(Cl)cc1)c1ccccc1` (configuration not stated) registered a melting point of 83 to 85 °C.
`CCOC(=O)CN(c1cccc2cc(-c3nccs3)[nH]c12)S(=O)(=O)c1cccs1`: the melting point fell in the range of 135 to 137 °C.
In turn, `Cn1nc(C(F)(F)F)n(-c2ccc(O)cc2)c1=S` returned a melting point of 150 to 152 °C.
In the case of `COc1ccccc1N1CCN(S(=O)(=O)c2ccc(N)cc2)CC1`, the melting point fell in the range of 230 to 232 °C.
Regarding `COC(=O)C1=C(C)NC(C)=C(C(=O)OC)C1c1cc([N+](=O)[O-])ccc1OCCCCNCC(O)COc1ccccc1` (configuration not stated), the melting point fell in the range of 131 to 133 °C.
As for `Cc1ccccc1[C@H]1CC[C@@H](c2ccccc2)N1C(=O)CNC(=O)Nc1cccc(CC(=O)O)c1` (racemic), the melting point came to 133 °C.
Regarding `CCN(CC)CCOc1ccc(-n2c(-c3ccccc3)cc(=O)c3ccccc32)cc1`, the melting point was in the range of 115 to 117 °C.
On to `CN1CCN(c2cc(Cl)cc3c2c(=O)n(Cc2ccc([N+](=O)[O-])cc2)c(=O)n3Cc2ccccc2)CC1`, for which the melting point lay within 109 to 113 °C.
Under `CCOC(=O)c1cn(-c2nc(NC(C)(C)C)c(F)cc2Cl)c2c(Cl)c(F)c(F)cc2c1=O` stands 210 to 213 °C; under `Clc1ccc(C2COCCS2)cc1Cl` (configuration not stated), 65 to 68 °C.
To `O=C(O)C(=O)c1ccc(CCCNC(=O)c2ccc3ccccc3c2)cc1` belongs 126 to 128 °C; to `Cn1cc(-c2ccccc2)c(=O)c(S(=O)(=O)c2ccccc2)c1`, 218 to 220 °C.
Molecule `O=C1CCCC(c2ccccc2)N1c1ccc(F)cc1` (configuration not stated) had a melting point of 87.5 to 88.5 °C.
In turn, `CN(C)C(=O)n1nc(N)c2ccc(Cl)cc21` yielded a melting point of 170 to 172 °C.
Molecule `C[C@@H]1S[C@@H](C(=O)Nc2ccc(CC3OC(=O)NC3=O)cc2)Cc2cc3c(cc2C1=O)OCO3` (some centres not stated) returned a melting point of 164 to 166 °C.
`CCOc1ccc(-c2nc(CCC(O)c3ccccc3OC)cs2)cc1OCC` (configuration not stated) returned a melting point of 78.2 to 79 °C.
On to `Nc1c(Cl)c(F)nc(F)c1Cl`, for which the melting point was found to be 110 °C.
Turning to `O=c1[nH]c2ccccc2cc1Br`, the melting point was in the range of 263 to 265 °C.
`COc1ccc(NC(=O)c2coc(-c3ccncc3)c2)cc1N1CCN(C)CC1` gave a melting point of 103 to 105 °C.
Take `CC(=O)N(C)c1cccc(C(=O)C=CN(C)C)c1`: the melting point was 146 to 148 °C.
Under `CC1=C(C(=O)O)C(c2cccc([N+](=O)[O-])c2)C(C(=O)OCCNC(=O)c2cccnc2)=C(C)N1` (configuration not stated) stands 151 to 152 °C.
Turning to `CCOC(=O)CC(NC(=O)c1cc(NC(=O)OC(C)(C)C)cc(OCc2ccccc2)c1)c1ccccc1` (racemic), the melting point was 115 °C.
In the case of `COc1ccc(C2Sc3cccc4cccc(c34)NC(=O)C2O)cc1` (configuration not stated), the melting point was in the range of 218 to 219 °C.
For the molecule `N[C@@H](Cc1ccc(C(F)(F)F)cc1)[C@H](O)c1cccc(F)c1` (racemic), the melting point is 81 to 82 °C.
Take `Cn1c(COc2ccc(CC3SC(=O)NC3=O)cc2)nc2ccc(Oc3cccc(NC(=O)Nc4cccc(C(F)(F)F)c4)c3)cc21` (configuration not stated): the melting point fell in the range of 162 to 163 °C.
`O=C1c2ccccc2C(=O)N1CCCCCCc1cnc2ccccc2c1` yielded a melting point of 90 to 91 °C.
The molecule `Brc1ccc2c(c1)C1(c3ccccc3-c3ccccc31)c1ccccc1-2` displayed a melting point of 181 to 183 °C.
In turn, `COc1cc(OC)nc(Cc2cccnc2NC(=O)OC(C)(C)C)n1` yielded a melting point of 89 to 92 °C.
Consider `CN1c2ccccc2Sc2cn(C)c(=O)c(C#N)c21`, for which the melting point is 236 to 237 °C.
The molecule `COc1cc2c(cc1OC)N(C)C(=O)CNC2=O` showed a melting point of 260 to 263 °C.
Molecule `CCn1nc(C)c2c1C(=O)Nc1ccccc1N2C(=O)CN1CCN(C)CC1` yielded a melting point of 145 to 146 °C.
`Cc1ccccc1P(=NC(=O)OC1CCOC1)(c1ccccc1)c1ccccc1` (configuration not stated): the melting point is 118 to 119 °C.
Turning to `O=S1(=O)NCN(CCF)c2cc(Cl)c(Cl)cc21`, the melting point lay in the range of 156 to 157 °C.
`Cc1cc(F)ccc1-c1cc(NCCNC(=O)NC2CCCCC2)nc2c1C=NC(=O)C2c1c(F)cccc1F` (configuration not stated) gave a melting point of 178 to 183 °C.
As for `CCCCCCCCCCCCCCCCCCOc1cc(OC(=O)C(c2ccccc2)c2ccccc2)cc(C(=O)OCc2ccccc2)c1`, the melting point lay in the range of 47 to 49 °C.
To `CCNc1nc(Cl)c(SC)c(Cl)n1` belongs 147 °C.
`Clc1ccc2nc(CN3CCc4ccccc4C3)[nH]c2c1` came in with a melting point of 204 to 206 °C.
For the molecule `CCOC(=O)CCCCOc1ccc(C(=N)NC(=O)OCc2ccccc2)cc1`, the melting point is 88 to 90 °C.
To `CCOC(=O)CNc1c(C)cc(C(O)(C(F)(F)Cl)C(F)(F)Cl)cc1C` belongs 102 to 104 °C.
`CNc1cn(-c2cncc(F)c2)nc1C` returned a melting point of 142 to 144 °C.
The molecule `CC12CCC(O)CC1CCC1C2CCC2(C)C(c3ccnnc3)CCC12O` (configuration not stated) displayed a melting point of 210 to 213 °C.
In turn, `OCCCc1ccc(Nc2c(-c3nnc(NCCN4CCOCC4)o3)ccc(F)c2F)c(F)c1` registered a melting point of 102 to 106 °C.
In turn, `Cc1noc(NS(=O)(=O)c2cccc(Cl)c2C)c1Br` had a melting point of 185 to 187 °C.
As to `CCCc1nc(NCCO)nc(N2CCOCC2)n1`, the melting point was 95 to 99 °C.
To `CC(O)c1csc(S(N)(=O)=O)c1` (configuration not stated) belongs 164 to 167 °C; to `CCNC(=O)Nc1ccc(CC(CO)NCC(O)COc2ccccc2)cc1` (configuration not stated), 129 to 130 °C.
Molecule `CCCN(CCC)c1nc2c(N3CCCCCC3)nc(N3CCOCC3)cc2c(=O)[nH]1` displayed a melting point of 250 °C.
Take `CC1=CC(O)C(OC(=O)C=Cc2ccccc2)C(C)(C)CC1=O` (configuration not stated): the melting point is 85.5 to 87 °C.
Take `COc1ccc(CCCC2OC(=O)NC2=O)cc1OCc1nc(-c2ccccc2)oc1C` (configuration not stated): the melting point is 185 to 187 °C.
As for `CC(C)SCS(=O)C(C)C` (configuration not stated), the melting point lay within 39 to 40 °C.
In the case of `CC(=O)c1ccc(-c2ccc(F)cc2)c(O)c1`, the melting point was in the range of 152 to 154 °C.
Regarding `OCCCSC(=S)Nc1ccccn1`, the melting point stood at 93 °C.
In the case of `COc1ccc(SC)c2c1CC(N)(C#N)CC2` (configuration not stated), the melting point was in the range of 128 to 130 °C.
Under `C[C@H]1C=CC2=C[C@@H](O)C[C@H](OC(=O)C(C)(C)Oc3ccccc3)[C@@H]2[C@H]1CC[C@@H]1C[C@@H](O)CC(=O)O1` stands 155 to 158 °C; under `CN1Cc2c(I)ncn2-c2ccc(F)cc2C1=O`, 187 to 188 °C; under `CC(C)c1cccc(S(=O)(=O)n2c(Cc3ccc(C(=O)O)cc3)cc3cc(C(F)(F)F)ccc32)c1`, 175 °C.
To `Fc1ccccc1Cn1cnc2c(Nn3cccc3)ncnc21` belongs 204 to 206 °C; to `CC(=O)OCC1OC(ONc2ccc(C)cc2)C(OC(C)=O)C(OC(C)=O)C1OC(C)=O` (configuration not stated), 93 °C; to `O=c1[nH]c2cc(F)ccc2n1-c1cc(Cl)ccc1O`, 256 to 260 °C.
Under `CCCCCc1c(C(C)C)nc(C(C)C)c(CO)c1-c1ccoc1` stands 98 to 100 °C.
The molecule `CS(=O)(=O)c1ccc(-c2cc(=O)n(CC3CCCCC3)nc2-c2ccc(F)cc2)cc1` gave a melting point of 175 to 176 °C.
`CCC(C)CCCC(C)C1CC(=O)C2(C(=O)O)C3=C(CCC12C)C1(C)CCC(O)CC1CC3` (configuration not stated) displayed a melting point of 195 to 196 °C.
Turning to `O=C1NC=C(C(=O)O)CN1`, the melting point lay in the range of 139 to 141 °C.
To `CC(C)(C)CN1C(=O)CC(=O)N(c2ccccc2Cl)c2cc(Cl)ccc21` belongs 245 to 246 °C; to `c1ccc(-c2ncc(-c3nnn[nH]3)cn2)cc1`, 237 °C.
`CCOP(=S)(CNSCNC(=O)ON=C(C)SC)OCC`: the melting point was 72 to 73 °C.
`CCC1(c2cccc(S(=O)(=O)c3ccc(C(C)(C)C)cc3)c2)COC(C)(C)O1` (configuration not stated) returned a melting point of 108 to 110 °C.
Turning to `CCCCn1ccc(-c2ccc3c(ccn3[C@H]3CC[C@H](O)CC3)c2)c(Cl)c1=O`, the melting point was determined as 191 °C.
`CN(c1cccc2cc(C3=NCC(CN4CCSCC4)S3)[nH]c12)S(=O)(=O)c1ccccn1` (configuration not stated) registered a melting point of 142 to 144 °C.
As for `Cc1cc(Cl)cc(NC(=O)Cc2ccc(OC3(C(=O)O)CCC(C)C3)cc2)c1` (configuration not stated), the melting point was in the range of 164 to 166 °C.
For `O=C(/C=C/c1cccc(S(=O)(=O)N2CCN(Cc3ccc4c(c3)OCO4)CC2)c1)NO`, the melting point is 172 °C.
To `CCOC(=O)c1cnn2c1nc(NC)c1cnc3c(cnn3CC)c12` belongs 321 to 322 °C; to `N#Cc1ccc(-c2cccc(-c3nc4cc(C#N)ccc4[nH]3)c2O)cc1`, 318 to 320 °C; to `COc1cc(OC)c(-c2cccs2)cc1/C=C/C(=O)c1ccc(S(=O)(=O)Nc2ccc(Cl)cn2)cc1`, 228 to 229 °C.

What is called melting point is the temperature, or range, at which the solid turns liquid.
